Source: US20220372014A1, “NEUROPROTECTIVE COMPOUNDS AND METHODS OF USE THEREOF” (The Johns Hopkins University, priority 2019, published 2022)

How the values were obtained:
[1] = tested on: PARP; test: MNNG-induced PAR accumulation (PARP activation), western blot; assay type: cell-based; conditions: FIG. 12A
Description: Tissue lysate preparation and western blot analysis. Dissected brain regions of interest were homogenized and prepared in lysis buffer [50 mM Tris-HCl (pH 7.4), 150 mM NaCl, 1 mM EDTA, 1% Triton x-100, 0.5% SDS, 0.5% sodium-deoxycholate, phosphatase inhibitor mixture I and II (Sigma-Aldrich, St. Louis, Mo.), and complete protease inhibitor mixture (Roche, Indianapolis, Ind.)]. The samples were rotated at 4° C. for 30 min for the complete lysis and centrifugated at 15,000×g for 30 min. Protein concentrations were determined using the BCA assay (Pierce) and samples were separated using SDS polyacrylamide gels and transferred onto nitrocellulose membranes. The blots were blocked with 5% non-fat milk in TBS-T (Tris buffered saline with 0.1% Tween—20) for 1 h, probed using various primary antibodies. Target antigens were incubated with appropriate HRP-conjugated secondary antibodies (Cell signaling) and were visualized by ECL substrate.
Cell culture, transfection, primary neuronal culture and treatment. SH-SY5Y cells (ATCC) were cultured in DMEM containing 10% fetal bovine serum and penicillin/streptomycin at 37° C. under 5% C02. The cells were transfected using PolyFect reagent (Qiagen). Parthanatos was induced by the treatment of 50 μM MNNG for 15 min in SH-SY5Y cells. ABT-888 or PAAN/MIF inhibitors were pretreated with indicated concentration 1 h before MNNG treatment and cell death were assessed after 24 h. Primary cortical neurons from WT, PAAN/MIF KO, E22Q KI or P1G KI embryos were prepared as previously described See Kam et al. (2018) Science 362:eaat8407. Briefly, the cortex was dissected and cultured at embryonic day 16 in neurobasal media supplemented with B-27, 0.5 mM L-glutamine, penicillin and streptomycin (Invitrogen). Primary neurons were infected with AAV2-control, AAV2-PAAN/MIF WT, AAV2-PAAN/MIF E22Q, AAV2-PAAN/MIF E22A or AAV2-MIF P1G (ViGene Biosciences) at days in vitro (DIV) 4-5. ABT-888 or PAAN/MIF inhibitors were applied to neurons 1 h before α-syn PFF treatment. The neuron growth medium was replaced with fresh medium alone or including inhibitors every 3-4 days. α-syn PFF was added at DIV 7 and further incubated for indicated times followed by the cell death assay or biochemical experiments.

[2] = molecular target: T1, PAAN/MIF thiol-protein oxidoreductase activity (Homo sapiens, UniProt P14174); test: Oxidoreductase activity assay (insulin reduction); assay type: biochemical; conditions: 10 μM compounds
T1 construct: GST (N, cleaved yes); made in house; host or cells: Escherichia coli
T1 sequence (P14174 1-115): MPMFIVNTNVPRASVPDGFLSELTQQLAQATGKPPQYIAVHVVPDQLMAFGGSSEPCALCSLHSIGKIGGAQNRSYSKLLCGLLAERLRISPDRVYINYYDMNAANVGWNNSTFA
Description: Oxidoreductase activity assay. The thiol-protein oxidoreductase activity of PAAN/MIF was measured using insulin as the substrate as described previously. See Kudrin et al. (2006) J. Biol. Chem. 281:29641-51. Briefly, the insulin assay is based on the reduction of insulin and subsequent insolubilization of the insulin β-chain. The time-dependent increase in turbidity is then measured spectrophotometrically at 650 nm. The reaction was started by adding 5 μM PAAN/MIF WT in the presence or absence of 10 μM compounds (compounds 41, 56, 76, and 77) dissolved in 20 mM sodium phosphate buffer (pH 7.2), and 200 mM reduced glutathione (GSH) to ice-cold reaction mixture containing 1 mg/ml insulin, 100 mM sodium phosphate buffer (pH 7.2) and 2 mM EDTA. Insulin reduction was measured against the control solution (containing GSH) in the same experiment.

[3] = molecular target: T2, PAAN/MIF tautomerase activity (Homo sapiens, UniProt P14174); test: Tautomerase activity assay (D-dopachrome methyl ester); assay type: biochemical; conditions: 10 μM compounds
T2 construct: GST (N, cleaved yes); made in house; host or cells: Escherichia coli
T2 sequence (P14174 1-115): T1 sequence (P14174 1-115)
Description: Tautomerase activity assay. The keto-enol tautomeric conversion of D-dopachrome methyl ester by PAAN/MIF was used as described previously. See Bendraft et al. (1997) Biochemistry 36:15356-62. Briefly, a fresh solution of D-dopachrome methyl ester was prepared by mixing 2 mML-3,4 dihydroxyphenylalanine methyl ester with 4 mM sodium peroxidate for 5 m at room temperature and then placed directly on ice before use. The enzymatic reaction was initiated at 25° C. by adding 20 μl of the dopachrome methyl ester substrate to 200 μl of PAAN/MIF WT (final concentration 5 μM) with or without 10 μM compounds (compounds 41, 56, 76, and 77) in tautomerase assay buffer (50 mM potassium phosphate, 1 mM EDTA, pH 6.0). To enhance substrate stability, excess sodium meta-periodate was removed using […] disposable columns (Waters). The activity was determined by the decrease in absorbance at 475 nm using a spectrophotometer (Molecular Devices).

[4] = molecular target: ExoIII (Escherichia coli, UniProt P09030); test: In vitro nuclease assay of ExoIII (18 bp double-strand DNA substrate); assay type: biochemical
ExoIII, sequence (P09030 whole entry): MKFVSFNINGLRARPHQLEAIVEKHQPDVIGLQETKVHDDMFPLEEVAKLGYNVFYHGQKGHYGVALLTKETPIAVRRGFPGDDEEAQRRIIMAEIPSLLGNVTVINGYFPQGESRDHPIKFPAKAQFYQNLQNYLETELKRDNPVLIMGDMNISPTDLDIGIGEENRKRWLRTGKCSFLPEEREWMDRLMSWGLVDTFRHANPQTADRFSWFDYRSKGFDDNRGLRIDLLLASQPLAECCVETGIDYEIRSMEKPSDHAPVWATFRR
Description: Nuclease assay. Purified PAAN/MIF protein (4 μM) was incubated with compounds (10 μM) in the nuclease buffer [10 mM Tris-C1 (pH 7.0) and 10 mM MgCl2] for 20 m on ice. Then samples were added with 1 μM of PAAN/MIF substrate (PS30 or RF) and incubated for 1 h at 37° C. The reaction was terminated with loading buffer containing 10 mM EDTA and separated on 15% TBE-urea polyacrylamide (PAGE) gel or 20% TBE PAGE gel. For other nucleases (EcoRI and EcoRV) assays, pcDNA3 (500 ng/reaction) was used as a substrate and 0.01 unit of Exonulcase III were incubated with small dsDNA (Sequence ID NO 4:5′-[…]-3′ and Sequence ID NO 5:5′-[…]-3′).

| SMILES | MNNG-induced PARP activation (PAR accumulation) [1] | MIF's oxidoreductase activity [2] | MIF's tautomerase activity [3] | nuclease activity of ExoIII [4] |
| --- | --- | --- | --- | --- |
| COc1ccc(CC[C@H]2OC(=O)[C@@H]3CCCCN3C(=O)C(=O)C(C)(C)COC(=O)C=CCCN(C)C(=O)CNC(=O)[C@H](C(C)C)N(C)C(=O)[C@@H](Cc3ccccc3)NC(=O)[C@H](CC(C)C)N(C)C(=O)CCC(=O)Nc3cccc2c3)cc1OC [compound 76] | did not affect | Neither did they inhibit | Neither did they inhibit | do not inhibit |
| COc1ccc(CC[C@H]2OC(=O)[C@@H]3CCCCN3C(=O)C(=O)C(C)(C)COC(=O)C=CCCN(C)C(=O)[C@@H]3CCCN3C(=O)[C@H](COC(C)(C)C)N(C)C(=O)C(c3ccccc3)NC(=O)[C@H](C)N(C)C(=O)COc3cccc2c3)cc1OC (stereo partly shown) [compound 56] | did not affect | Neither did they inhibit | Neither did they inhibit | do not inhibit |
| COc1ccc(CC[C@H]2OC(=O)[C@@H]3CCCCN3C(=O)C(=O)C(C)(C)COC(=O)C=CCCN(C)C(=O)[C@@H]3CCCN3C(=O)[C@H](COC(C)(C)C)N(C)C(=O)C(c3ccccc3)NC(=O)CN(C)C(=O)COc3cccc2c3)cc1OC (stereo partly shown) [compound 41] | did not affect | Neither did they inhibit | Neither did they inhibit | do not inhibit |
| COc1ccc(CC[C@H]2OC(=O)[C@@H]3CCCCN3C(=O)C(=O)C(C)(C)COC(=O)C=CCCN(C)C(=O)[C@H](C)NC(=O)[C@H](C(C)C)N(C)C(=O)[C@@H](Cc3ccccc3)NC(=O)[C@H](CC(C)C)N(C)C(=O)CCC(=O)Nc3cccc2c3)cc1OC [compound 77] | did not affect | Neither did they inhibit | Neither did they inhibit | do not inhibit |
